Results from patent US10765114B2, “4-amino-6-(pyridyl and 2-substitutedphenyl)-picolinates and 6-amino-2-(pyridyl and 2-substitutedphenyl)-pyrimidine-4-carboxylates and their use as herbicides” (Dow AgroSciences LLC, priority 2013, dated 2020).
Where two headings read alike, the source gives them in different places.

What was measured:
[1] = tested on: Key Grass and Sedge Weeds as well as Grass Crops; assay: Post-Emergent Test II (Table 6); format: in vivo; conditions: post-emergence, 336 h, 14 days after application; for pest or weed control at 70 g/ha: 70 g ai/ha; for pest or weed control at 140 g/ha: 140 g ai/ha
How it was run: (§1)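 Plants grown in a greenhouse (~15 h photoperiod, 23-29° C day) to first or second true leaf stage were sprayed post-emergence at 187 L/ha with compound in acetone/DMSO-based aqueous spray containing crop oil concentrate and surfactant, applied at a high rate plus ½× to 1/16× serial rates. Injury was scored visually 14 days later, 0-100% versus untreated plants.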

[2] = tested on: Key Broadleaf Weed and Crop Species; assay: Post-Emergent Test II (Table 5); format: in vivo; conditions: post-emergence, 336 h; for pest or weed control at 70 g/ha: application rate 70 (kg ai/ha; footnote: g ai/ha); for pest or weed control at 140 g/ha: application rate 140 (kg ai/ha; footnote: g ai/ha)
How it was run: as §1

[3] = CYPSS, read-out: Visual Growth Reduction (%) 14 Days After Application CYPSS
[4] = DIGSA: crabgrass (Digitaria sanguinalis), read-out: Visual Growth Reduction (%) 14 Days After Application DIGSA
[5] = ECHSS, read-out: Visual Growth Reduction (%) 14 Days After Application ECHSS
[6] = ORYSS (crop), read-out: Visual Growth Reduction (%) 14 Days After Application ORYSS
[7] = SETFA: giant foxtail (Setaria faberi), read-out: Visual Growth Reduction (%) 14 Days After Application SETFA
[8] = SORVU: grain sorghum (Sorghum vulgare), read-out: Visual Growth Reduction (%) 14 Days After Application SORVU
[9] = TRZSS (crop), read-out: Visual Growth Reduction (%) 14 Days After Application TRZSS
[10] = ZEAMX: maize, corn (Zea mays), read-out: Visual Growth Reduction (%) 14 Days After Application ZEAMX
[11] = Abutilon theophrasti, ABUTH: velvetleaf (Abutilon theophrasti), read-out: Visual Growth Reduction (%) 14 Days After Application ABUTH
[12] = Amaranthus retroflexus, AMARE: redroot pigweed (Amaranthus retroflexus), read-out: Visual Growth Reduction (%) 14 Days After Application AMARE
[13] = Brassica napus, BRSSS: oilseed rape, canola (Brassica napus), read-out: Visual Growth Reduction (%) 14 Days After Application BRSSS
[14] = Chenopodium album, CHEAL: lambsquarters (Chenopodium album), read-out: Visual Growth Reduction (%) 14 Days After Application CHEAL
[15] = Euphorbia heterophylla, EPHHL: wild poinsettia (Euphorbia heterophylla), read-out: Visual Growth Reduction (%) 14 Days After Application EPHHL
[16] = Helianthus annuus, HELAN: sunflower (Helianthus annuus), read-out: Visual Growth Reduction (%) 14 Days After Application HELAN
[17] = Viola tricolor, VIOTR: wild pansy (Viola tricolor), read-out: Visual Growth Reduction (%) 14 Days After Application VIOTR

## Nc1cc(-c2ccc(Cl)c(F)c2CO)nc(C(=O)O)c1Cl [Compound 11, 4-Amino-3-chloro-6-(4-chloro-3-fluoro-2-(hydroxymethyl)phenyl)picolinic acid]
[1]; [3]
  pest or weed control at 70 g/ha: 0 to 29%
  pest or weed control at 140 g/ha: 0 to 29%
[1]; [4]
  pest or weed control at 70 g/ha: 0 to 29%
  pest or weed control at 140 g/ha: 0 to 29%
[1]; [5]
  pest or weed control at 70 g/ha: 0 to 29%
  pest or weed control at 140 g/ha: 0 to 29%
[1]; [6]
  pest or weed control at 70 g/ha: 0 to 29%
  pest or weed control at 140 g/ha: 0 to 29%
[1]; [7]
  pest or weed control at 70 g/ha: 0 to 29%
  pest or weed control at 140 g/ha: 0 to 29%
[1]; [8]
  pest or weed control at 70 g/ha: 0 to 29%
  pest or weed control at 140 g/ha: 0 to 29%
[1]; [9]
  pest or weed control at 70 g/ha: 0 to 29%
  pest or weed control at 140 g/ha: 0 to 29%
[1]; [10]
  pest or weed control at 70 g/ha: 0 to 29%
  pest or weed control at 140 g/ha: 0 to 29%
[2]; [11]
  pest or weed control at 70 g/ha: 0 to 29%
  pest or weed control at 140 g/ha: 0 to 29%
[2]; [12]
  pest or weed control at 70 g/ha: 0 to 29%
  pest or weed control at 140 g/ha: 0 to 29%
[2]; [13]
  pest or weed control at 70 g/ha: 0 to 29%
  pest or weed control at 140 g/ha: 0 to 29%
[2]; [14]
  pest or weed control at 70 g/ha: 0 to 29%
  pest or weed control at 140 g/ha: 75 to 84%
[2]; [15]
  pest or weed control at 70 g/ha: 0 to 29%
  pest or weed control at 140 g/ha: 0 to 29%
[2]; [16]
  pest or weed control at 70 g/ha: 0 to 29%
  pest or weed control at 140 g/ha: 0 to 29%
[2]; [17]
  pest or weed control at 70 g/ha: 0 to 29%
  pest or weed control at 140 g/ha: 0 to 29%

## Nc1c(F)c(-c2ccc(Br)nc2)nc(C(=O)O)c1Cl [Compound 8, 4-amino-6′-bromo-5-chloro-3-fluoro-[2,3′-bipyridine]-6-carboxylic acid]
[1]; [3]
  pest or weed control at 70 g/ha: 95 to 100%
  pest or weed control at 140 g/ha: 95 to 100%
[1]; [4]
  pest or weed control at 70 g/ha: 85 to 94%
  pest or weed control at 140 g/ha: 95 to 100%
[1]; [5]
  pest or weed control at 70 g/ha: 85 to 94%
  pest or weed control at 140 g/ha: 95 to 100%
[1]; [6]
  pest or weed control at 70 g/ha: 60 to 74%
  pest or weed control at 140 g/ha: 75 to 84%
[1]; [7]
  pest or weed control at 70 g/ha: 85 to 94%
  pest or weed control at 140 g/ha: 85 to 94%
[1]; [8]
  pest or weed control at 70 g/ha: 85 to 94%
  pest or weed control at 140 g/ha: 95 to 100%
[1]; [9]
  pest or weed control at 70 g/ha: 85 to 94%
  pest or weed control at 140 g/ha: 95 to 100%
[1]; [10]
  pest or weed control at 70 g/ha: 85 to 94%
  pest or weed control at 140 g/ha: 95 to 100%
[2]; [11]
  pest or weed control at 70 g/ha: 85 to 94%
  pest or weed control at 140 g/ha: 95 to 100%
[2]; [12]
  pest or weed control at 70 g/ha: 95 to 100%
  pest or weed control at 140 g/ha: 95 to 100%
[2]; [13]
  pest or weed control at 70 g/ha: 95 to 100%
  pest or weed control at 140 g/ha: 95 to 100%
[2]; [14]
  pest or weed control at 70 g/ha: 95 to 100%
  pest or weed control at 140 g/ha: 95 to 100%
[2]; [15]
  pest or weed control at 70 g/ha: 75 to 84%
  pest or weed control at 140 g/ha: 95 to 100%
[2]; [16]
  pest or weed control at 70 g/ha: 95 to 100%
  pest or weed control at 140 g/ha: 95 to 100%
[2]; [17]
  pest or weed control at 70 g/ha: 95 to 100%
  pest or weed control at 140 g/ha: 95 to 100%

## COc1c(-c2cc(N)c(Cl)c(C(=O)O)n2)ccc(Cl)c1F [Compound 84, 4-amino-3-chloro-6-(4-chloro-3-fluoro-2-methoxyphenyl)picolinic acid]
[1]; [3]
  pest or weed control at 70 g/ha: 0 to 29%
  pest or weed control at 140 g/ha: 0 to 29%
[1]; [4]
  pest or weed control at 70 g/ha: 0 to 29%
  pest or weed control at 140 g/ha: 0 to 29%
[1]; [5]
  pest or weed control at 70 g/ha: 0 to 29%
  pest or weed control at 140 g/ha: 0 to 29%
[1]; [6]
  pest or weed control at 70 g/ha: 0 to 29%
  pest or weed control at 140 g/ha: 0 to 29%
[1]; [7]
  pest or weed control at 70 g/ha: 0 to 29%
  pest or weed control at 140 g/ha: 0 to 29%
[1]; [8]
  pest or weed control at 70 g/ha: 0 to 29%
  pest or weed control at 140 g/ha: 0 to 29%
[1]; [9]
  pest or weed control at 70 g/ha: 0 to 29%
  pest or weed control at 140 g/ha: 0 to 29%
[1]; [10]
  pest or weed control at 70 g/ha: 0 to 29%
  pest or weed control at 140 g/ha: 0 to 29%
[2]; [11]
  pest or weed control at 70 g/ha: 95 to 100%
  pest or weed control at 140 g/ha: 95 to 100%
[2]; [12]
  pest or weed control at 70 g/ha: 95 to 100%
  pest or weed control at 140 g/ha: 95 to 100%
[2]; [13]
  pest or weed control at 70 g/ha: 95 to 100%
  pest or weed control at 140 g/ha: 95 to 100%
[2]; [14]
  pest or weed control at 70 g/ha: 95 to 100%
  pest or weed control at 140 g/ha: 95 to 100%
[2]; [15]
  pest or weed control at 70 g/ha: 0 to 29%
  pest or weed control at 140 g/ha: 0 to 29%
[2]; [16]
  pest or weed control at 70 g/ha: 85 to 94%
  pest or weed control at 140 g/ha: 85 to 94%
[2]; [17]
  pest or weed control at 70 g/ha: 95 to 100%
  pest or weed control at 140 g/ha: 95 to 100%

## COC(=O)c1nc(-c2ccc(C(F)(F)F)nc2OC)cc(N)c1Cl [Compound 37]
[1]; [3]
  pest or weed control at 70 g/ha: 0 to 29%
  pest or weed control at 140 g/ha: 0 to 29%
[1]; [4]
  pest or weed control at 70 g/ha: 0 to 29%
  pest or weed control at 140 g/ha: 0 to 29%
[1]; [6]
  pest or weed control at 70 g/ha: 0 to 29%
  pest or weed control at 140 g/ha: 0 to 29%
[1]; [7]
  pest or weed control at 70 g/ha: 0 to 29%
  pest or weed control at 140 g/ha: 0 to 29%
[1]; [8]
  pest or weed control at 70 g/ha: 0 to 29%
  pest or weed control at 140 g/ha: 0 to 29%
[1]; [9]
  pest or weed control at 70 g/ha: 0 to 29%
  pest or weed control at 140 g/ha: 0 to 29%
[1]; [10]
  pest or weed control at 70 g/ha: 0 to 29%
  pest or weed control at 140 g/ha: 0 to 29%
[2]; [11]
  pest or weed control at 70 g/ha: 75 to 84%
  pest or weed control at 140 g/ha: 75 to 84%
[2]; [12]
  pest or weed control at 70 g/ha: 60 to 74%
  pest or weed control at 140 g/ha: 75 to 84%
[2]; [13]
  pest or weed control at 70 g/ha: 0 to 29%
  pest or weed control at 140 g/ha: 30 to 44%
[2]; [14]
  pest or weed control at 70 g/ha: 85 to 94%
  pest or weed control at 140 g/ha: 85 to 94%
[2]; [15]
  pest or weed control at 70 g/ha: 0 to 29%
  pest or weed control at 140 g/ha: 0 to 29%
[2]; [16]
  pest or weed control at 70 g/ha: 0 to 29%
  pest or weed control at 140 g/ha: 60 to 74%
[2]; [17]
  pest or weed control at 70 g/ha: 0 to 29%
  pest or weed control at 140 g/ha: 0 to 29%
